Experiments:
Assay in all cases: NCI-60 one-dose screening
Format in all cases: cell-based
[1] = system: 786-0; conditions: Homo sapiens, 786-0, Renal Cancer, read-out: GI (%)
[2] = system: A549/ATCC; conditions: Homo sapiens, Non-Small Cell Lung Cancer, read-out: GI (%)
[3] = system: ACHN; conditions: Homo sapiens, Renal Cancer, read-out: GI (%)
[4] = system: COLO 205; conditions: Homo sapiens, COLO 205, Colon Cancer, read-out: GI (%)
[5] = system: HCC-2998; conditions: Homo sapiens, HCC-2998, Colon Cancer, read-out: GI (%)
[6] = system: HL-60(TB); conditions: Homo sapiens, Leukemias, read-out: GI (%)
[7] = system: HOP-62; conditions: Homo sapiens, HOP-62, Non-Small Cell Lung Cancer, read-out: GI (%)
[8] = system: K-562; conditions: Homo sapiens, K562, K-562, Leukemias, read-out: GI (%)
[9] = system: LOX IMVI; conditions: Homo sapiens, Melanoma, read-out: GI (%)
[10] = system: MCF7; conditions: Homo sapiens, MCF7, 10 μM; MCF7, Breast Cancer; read-out: GI (%)
[11] = system: MDA-MB-231/ATCC; conditions: Homo sapiens, Breast Cancer, read-out: GI (%)
[12] = system: MDA-MB-468; conditions: Homo sapiens, MDA-MB-468, Breast Cancer, read-out: GI (%)
[13] = system: MOLT-4; conditions: Homo sapiens, MOLT-4, Leukemias, read-out: GI (%)
[14] = system: OVCAR-3; conditions: Homo sapiens, OVCAR-3, 10 μM; OVCAR-3, Ovarian Cancer; read-out: GI (%)
[15] = system: OVCAR-8; conditions: Homo sapiens, OVCAR-8, Ovarian Cancer, read-out: GI (%)
[16] = system: SF-295; conditions: Homo sapiens, SF-295, CNS Cancer, read-out: GI (%)
[17] = system: SK-MEL-2; conditions: Homo sapiens, SK-MEL-2, Melanoma, read-out: GI (%)
[18] = system: SNB-19; conditions: Homo sapiens, SNB-19, CNS Cancer, read-out: GI (%)
[19] = system: SNB-75; conditions: Homo sapiens, SNB-75, CNS Cancer, read-out: GI (%)
[20] = system: T-47D; conditions: Homo sapiens, T47D, Breast Cancer, read-out: GI (%)
[21] = system: TK-10; conditions: Homo sapiens, TK-10, Renal Cancer, read-out: GI (%)
[22] = system: U251; conditions: Homo sapiens, U-251, U251, CNS Cancer, read-out: GI (%)

SMILES | inhibition at 10 µM [1] [%] | inhibition at 10 µM [2] [%] | inhibition at 10 µM [3] [%] | inhibition at 10 µM [4] [%] | inhibition at 10 µM [5] [%] | inhibition at 10 µM [6] [%] | inhibition at 10 µM [7] [%] | inhibition at 10 µM [8] [%] | inhibition at 10 µM [9] [%] | inhibition at 10 µM [10] [%] | inhibition at 10 µM [11] [%] | inhibition at 10 µM [12] [%] | inhibition at 10 µM [13] [%] | inhibition at 10 µM [14] [%] | inhibition at 10 µM [15] [%] | inhibition at 10 µM [16] [%] | inhibition at 10 µM [17] [%] | inhibition at 10 µM [18] [%] | inhibition at 10 µM [19] [%] | inhibition at 10 µM [20] [%] | other results
COc1cc(C=C2C(=O)Nc3ccccc32)ccc1OCc1ccccc1 (mixture of isomers) [6a] | -0.73 | -9.96 | 6.95 | -17.8 | -19.5 | -10.5 | -3.56 | 3.5 | 7.61 | 35.7 | 5.3 | 8.69 | 1.73 | 11 | -0.93 | -1.61 | -10.6 | 0.53 | -0.57 | -13 | inhibition at 10 µM [21]: -40.3%; inhibition at 10 µM [22]: -6.68%
COc1cc(C=C2C(=O)Nc3ccccc32)ccc1OCc1ccccn1 (mixture of isomers) [6e] | 1.32 | -7.19 | 9.08 | -16 | -16.2 | 13 | 7.92 | 19.6 | 3.36 | 50 to 65 | 18.1 | 14.2 | 12.5 | 0.9 | 0.31 | 4.7 | -1.21 | 9.82 | -6.42 | 15.8 | inhibition at 10 µM [21]: -51.2%; inhibition at 10 µM [22]: 9.28%
COc1cc(C=C2C(=O)Nc3cc(Cl)ccc32)ccc1OCc1ccc(Cl)cc1 (mixture of isomers) [6l] | -7.1 | -5.86 | 7.13 | -13.1 | -18.5 | -11.5 | 4.49 | 9.88 | -8.24 | 50 to 65 | 8.37 | 4.61 | 6.35 | -3.06 | 2.85 | 2.01 | -8.37 | -5.43 | -3.14 | 14.8 | inhibition at 10 µM [21]: -59.6%; inhibition at 10 µM [22]: -5.85%
COc1cc(/C=C2/C(=O)Nc3ccccc32)ccc1OCc1ccc(Cl)cc1 [6b] | -6.18 | -7.18 | 7.31 | -16.1 | -23.5 | -13.4 | -0.91 | 1.45 | 0.22 | 30.5 | 1 | -1.64 | 6.07 | -5.51 | -1.64 | -2.92 | -5.45 | 2.91 | -3.58 | -6.94 | inhibition at 10 µM [21]: -35.9%; inhibition at 10 µM [22]: -7%
COc1cc(/C=C2/C(=O)Nc3ccccc32)ccc1OCc1ccc(F)cc1 [6c] | -6.73 | -7.83 | -2.09 | -11.2 | -18.9 | -15.2 | -0.35 | -3.95 | 2.75 | 12.2 | -0.03 | -2.14 | 3.23 | -16.7 | -1.99 | -1.97 | -7.35 | 0.68 | -5.65 | -6.65 | inhibition at 10 µM [21]: -29.6%; inhibition at 10 µM [22]: -6.26%

— PMC9948168, “Vanillin-Based Indolin-2-one Derivative Bearing a Pyridyl Moiety as a Promising Anti-Breast Cancer Agent via Anti-Estrogenic Activity” (ACS Omega, 2023)
